Test results as given in ChEMBL document CHEMBL1938343, “Lead optimisation of selective non-zinc binding inhibitors of MMP13. Part 2” (Bioorg Med Chem Lett, 2012).
Converted amounts (≈) assume the structure as drawn.

Experiments:
[1] = Lipophilicity, log D of the compound; details: octanol/water
[2] = Apparent permeability across basolateral to apical side in human Caco2 cells at 10 uM; type: ADME, cell-based; details: Caco-2
[3] = Oral bioavailability in rat at 2 to 50 mg/kg; type: ADME, organism-based; details: in vivo
[4] = Apparent permeability across apical to basolateral side in human Caco2 cells at 10 uM; type: ADME, cell-based; details: Caco-2
[5] = Intrinsic clearance in Sprague-Dawley rat hepatocytes assessed per 10^6 cells; type: ADME, cell-based, Hepatocyte; details: Sprague-Dawley, read-out: CLH
[6] = target: 72 kDa type IV collagenase (Homo sapiens, UniProt P08253); assay: Inhibition of MMP2 using Mca-Pro-cyclohexyl-Ala-Gly-Nva-His-Ala- Dap(Dnp)-NH2 as substrate by fluorometric analysis; details: read-out: pIC50 (converted)
72 kDa type IV collagenase, sequence (P08253 whole entry): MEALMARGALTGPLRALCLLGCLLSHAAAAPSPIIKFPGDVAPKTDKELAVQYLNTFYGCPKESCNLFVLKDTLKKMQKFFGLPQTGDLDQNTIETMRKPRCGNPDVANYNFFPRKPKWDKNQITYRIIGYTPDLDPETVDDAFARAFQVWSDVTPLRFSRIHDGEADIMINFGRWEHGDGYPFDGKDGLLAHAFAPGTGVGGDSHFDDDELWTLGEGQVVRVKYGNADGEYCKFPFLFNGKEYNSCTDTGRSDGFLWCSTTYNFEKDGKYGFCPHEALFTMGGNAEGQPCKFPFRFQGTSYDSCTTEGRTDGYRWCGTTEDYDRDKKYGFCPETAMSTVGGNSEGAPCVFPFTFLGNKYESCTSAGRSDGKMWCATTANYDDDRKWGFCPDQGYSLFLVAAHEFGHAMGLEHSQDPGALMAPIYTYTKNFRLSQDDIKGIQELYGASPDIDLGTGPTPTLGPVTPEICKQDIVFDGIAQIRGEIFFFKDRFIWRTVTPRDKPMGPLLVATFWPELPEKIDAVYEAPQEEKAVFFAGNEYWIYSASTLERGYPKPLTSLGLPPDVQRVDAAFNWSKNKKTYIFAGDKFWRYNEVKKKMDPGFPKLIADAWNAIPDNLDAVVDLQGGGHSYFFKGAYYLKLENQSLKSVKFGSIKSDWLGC

[7] = test system: Rattus norvegicus; assay: (§1) Oral bioavailability in rat; type: ADME, organism-based; details: in vivo
[8] = target: Matrix metalloproteinase-9 (Homo sapiens, UniProt P14780); assay: Inhibition of MMP9 using Mca-Pro-cyclohexyl-Ala-Gly-Nva-His-Ala- Dap(Dnp)-NH2 as substrate by fluorometric analysis
Matrix metalloproteinase-9, sequence (P14780 whole entry): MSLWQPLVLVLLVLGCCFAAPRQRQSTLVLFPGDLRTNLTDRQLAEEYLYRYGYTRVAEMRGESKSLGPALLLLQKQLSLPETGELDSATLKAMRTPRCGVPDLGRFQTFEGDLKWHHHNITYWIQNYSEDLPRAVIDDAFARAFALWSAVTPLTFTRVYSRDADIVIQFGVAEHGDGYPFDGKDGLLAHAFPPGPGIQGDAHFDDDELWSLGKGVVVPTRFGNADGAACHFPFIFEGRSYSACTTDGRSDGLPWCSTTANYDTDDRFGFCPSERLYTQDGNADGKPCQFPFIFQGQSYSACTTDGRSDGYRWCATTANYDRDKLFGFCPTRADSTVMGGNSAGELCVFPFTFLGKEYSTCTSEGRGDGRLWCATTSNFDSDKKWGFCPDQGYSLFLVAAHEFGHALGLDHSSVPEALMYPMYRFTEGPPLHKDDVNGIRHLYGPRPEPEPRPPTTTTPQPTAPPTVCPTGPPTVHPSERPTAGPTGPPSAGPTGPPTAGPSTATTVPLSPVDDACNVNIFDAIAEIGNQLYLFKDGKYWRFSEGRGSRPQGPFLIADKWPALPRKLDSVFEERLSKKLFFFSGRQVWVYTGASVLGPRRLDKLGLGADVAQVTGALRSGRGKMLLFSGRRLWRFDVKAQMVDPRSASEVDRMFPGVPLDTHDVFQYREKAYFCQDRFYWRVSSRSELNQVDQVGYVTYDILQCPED

[9] = Intrinsic clearance in human microsomes; type: ADME, Microsome
[10] = target: Collagenase 3 (Homo sapiens, UniProt P45452); assay: Inhibition of recombinant human MMP13 using Mca-Pro-cyclohexyl-Ala-Gly-Nva-His-Ala- Dap(Dnp)-NH2 as substrate by fluorometric analysis; details: read-out: pIC50 (converted)
[11] = target: Matrix metalloproteinase-14 (Homo sapiens, UniProt P50281); assay: Inhibition of MMP14 using Mca-Pro-cyclohexyl-Ala-Gly-Nva-His-Ala- Dap(Dnp)-NH2 as substrate by fluorometric analysis
[12] = target: Macrophage metalloelastase (Homo sapiens, UniProt P39900); assay: Inhibition of MMP12 using Mca-Pro-cyclohexyl-Ala-Gly-Nva-His-Ala- Dap(Dnp)-NH2 as substrate by fluorometric analysis
Macrophage metalloelastase, sequence (P39900 whole entry): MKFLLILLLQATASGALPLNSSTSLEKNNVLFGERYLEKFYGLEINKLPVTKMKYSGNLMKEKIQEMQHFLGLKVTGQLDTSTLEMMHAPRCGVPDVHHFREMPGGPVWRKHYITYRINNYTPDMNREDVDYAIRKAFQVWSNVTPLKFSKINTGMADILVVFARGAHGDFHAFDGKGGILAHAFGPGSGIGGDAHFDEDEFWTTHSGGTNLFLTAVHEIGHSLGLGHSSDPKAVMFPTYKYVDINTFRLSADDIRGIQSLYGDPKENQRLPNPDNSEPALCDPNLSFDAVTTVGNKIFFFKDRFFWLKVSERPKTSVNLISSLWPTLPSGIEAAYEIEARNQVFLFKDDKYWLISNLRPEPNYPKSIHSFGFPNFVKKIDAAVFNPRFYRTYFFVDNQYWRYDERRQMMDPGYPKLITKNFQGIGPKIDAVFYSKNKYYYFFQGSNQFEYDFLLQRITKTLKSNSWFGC

[13] = Thermodynamic solubility of the compound; details: Therm_solubility
[14] = target: T1, A disintegrin and metalloproteinase with thrombospondin motifs 5 (Homo sapiens) (UniProt Q9UNA0); assay: Inhibition of ADAM-TS5 using dimethoxyfluorescein-Ser-Pro-Leu-Ala-Gln-Ala- Val-Arg-ser-Ser-Arg-Cys-fluorescein as substrate
T1 sequence (whole entry): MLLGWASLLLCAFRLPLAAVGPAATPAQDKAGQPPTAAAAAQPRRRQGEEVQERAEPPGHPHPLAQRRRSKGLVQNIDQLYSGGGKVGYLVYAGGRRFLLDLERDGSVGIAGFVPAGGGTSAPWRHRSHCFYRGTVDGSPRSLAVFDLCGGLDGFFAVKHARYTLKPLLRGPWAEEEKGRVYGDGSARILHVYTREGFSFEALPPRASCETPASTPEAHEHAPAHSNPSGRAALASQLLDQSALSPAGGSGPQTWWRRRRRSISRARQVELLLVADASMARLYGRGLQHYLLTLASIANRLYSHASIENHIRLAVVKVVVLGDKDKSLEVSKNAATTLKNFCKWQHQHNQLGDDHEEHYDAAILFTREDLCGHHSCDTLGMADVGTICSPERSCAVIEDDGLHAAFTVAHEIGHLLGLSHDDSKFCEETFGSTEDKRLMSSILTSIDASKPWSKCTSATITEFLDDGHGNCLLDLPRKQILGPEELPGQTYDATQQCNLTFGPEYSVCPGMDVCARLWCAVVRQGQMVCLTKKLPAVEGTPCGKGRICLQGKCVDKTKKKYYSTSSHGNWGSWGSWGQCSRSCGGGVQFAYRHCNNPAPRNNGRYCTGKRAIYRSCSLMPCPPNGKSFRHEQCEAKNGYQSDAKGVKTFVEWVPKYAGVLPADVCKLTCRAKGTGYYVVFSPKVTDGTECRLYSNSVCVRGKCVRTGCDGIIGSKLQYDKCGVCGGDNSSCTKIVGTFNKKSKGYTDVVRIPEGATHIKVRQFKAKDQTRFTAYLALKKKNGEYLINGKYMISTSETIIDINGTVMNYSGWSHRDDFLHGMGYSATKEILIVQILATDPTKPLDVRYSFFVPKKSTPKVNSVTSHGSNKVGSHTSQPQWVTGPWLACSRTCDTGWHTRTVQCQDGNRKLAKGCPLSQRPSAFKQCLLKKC

[15] = target: T2, A disintegrin and metalloproteinase with thrombospondin motifs 4 (Homo sapiens) (UniProt O75173); assay: Inhibition of ADAM-TS4 using dimethoxyfluorescein-Ser-Pro-Leu-Ala-Gln-Ala- Val-Arg-ser-Ser-Arg-Cys-fluorescein as substrate
T2 sequence (whole entry): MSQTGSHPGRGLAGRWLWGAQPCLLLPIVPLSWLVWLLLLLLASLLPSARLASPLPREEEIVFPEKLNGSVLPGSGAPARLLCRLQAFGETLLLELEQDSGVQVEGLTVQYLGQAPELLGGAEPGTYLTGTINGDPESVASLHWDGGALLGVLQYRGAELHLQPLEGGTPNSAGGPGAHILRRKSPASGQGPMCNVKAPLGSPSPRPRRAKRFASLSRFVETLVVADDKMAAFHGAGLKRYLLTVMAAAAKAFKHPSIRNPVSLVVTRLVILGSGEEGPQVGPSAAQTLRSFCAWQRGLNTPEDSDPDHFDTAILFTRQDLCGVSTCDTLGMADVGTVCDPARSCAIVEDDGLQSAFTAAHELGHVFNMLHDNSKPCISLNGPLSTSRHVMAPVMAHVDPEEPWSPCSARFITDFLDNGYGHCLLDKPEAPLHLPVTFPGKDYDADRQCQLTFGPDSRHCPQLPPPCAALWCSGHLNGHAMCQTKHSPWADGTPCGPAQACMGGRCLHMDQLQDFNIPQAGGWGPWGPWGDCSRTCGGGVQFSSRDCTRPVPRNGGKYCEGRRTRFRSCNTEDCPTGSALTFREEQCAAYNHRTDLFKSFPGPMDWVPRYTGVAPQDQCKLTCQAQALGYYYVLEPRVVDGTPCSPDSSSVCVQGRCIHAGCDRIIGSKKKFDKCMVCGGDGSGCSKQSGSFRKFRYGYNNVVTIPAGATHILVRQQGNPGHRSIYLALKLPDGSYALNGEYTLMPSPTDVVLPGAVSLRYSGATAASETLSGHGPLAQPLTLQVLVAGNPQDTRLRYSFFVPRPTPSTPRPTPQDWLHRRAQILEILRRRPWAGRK

[16] = target: T3, A disintegrin and metalloproteinase with thrombospondin motifs 1 (Homo sapiens) (UniProt Q9UHI8); assay: Inhibition of ADAM-TS1 dimethoxyfluorescein-Ser-Pro-Leu-Ala-Gln-Ala- Val-Arg-ser-Ser-Arg-Cys-fluorescein
T3 sequence (whole entry): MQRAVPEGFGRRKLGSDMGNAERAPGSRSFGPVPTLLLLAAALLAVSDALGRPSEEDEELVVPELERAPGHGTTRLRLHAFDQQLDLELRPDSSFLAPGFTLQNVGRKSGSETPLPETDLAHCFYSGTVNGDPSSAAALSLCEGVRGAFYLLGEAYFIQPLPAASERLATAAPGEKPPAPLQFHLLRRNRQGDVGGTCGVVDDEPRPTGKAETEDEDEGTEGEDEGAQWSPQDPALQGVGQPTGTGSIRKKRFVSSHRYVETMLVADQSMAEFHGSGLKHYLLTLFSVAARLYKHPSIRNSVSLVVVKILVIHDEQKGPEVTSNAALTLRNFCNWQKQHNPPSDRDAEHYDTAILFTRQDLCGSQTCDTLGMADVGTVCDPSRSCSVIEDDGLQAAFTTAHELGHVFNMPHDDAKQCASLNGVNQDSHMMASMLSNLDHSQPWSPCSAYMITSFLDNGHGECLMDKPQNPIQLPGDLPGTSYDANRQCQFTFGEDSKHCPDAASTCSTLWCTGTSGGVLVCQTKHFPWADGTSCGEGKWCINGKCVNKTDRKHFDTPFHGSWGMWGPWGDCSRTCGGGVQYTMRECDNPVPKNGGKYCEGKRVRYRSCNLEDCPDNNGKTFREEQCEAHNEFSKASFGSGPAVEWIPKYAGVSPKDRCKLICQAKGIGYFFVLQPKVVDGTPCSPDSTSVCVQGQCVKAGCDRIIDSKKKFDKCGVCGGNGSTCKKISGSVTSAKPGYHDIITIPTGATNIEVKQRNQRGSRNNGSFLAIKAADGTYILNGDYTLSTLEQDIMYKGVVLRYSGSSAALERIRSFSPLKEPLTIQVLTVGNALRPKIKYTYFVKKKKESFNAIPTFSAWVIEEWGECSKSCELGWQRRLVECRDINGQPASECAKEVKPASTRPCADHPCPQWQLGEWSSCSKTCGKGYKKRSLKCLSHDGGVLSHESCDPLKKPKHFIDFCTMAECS

[17] = Fraction unbound in human; type: ADME, organism-based; details: in vivo
[18] = Volume of distribution at steady state in rat at 2 mg/kg, iv; type: ADME, organism-based; set-up: dose 2 mg/kg, route intravenous; details: in vivo, read-out: Vdss
[19] = target: T4, Cytochrome P450 1A2 (Homo sapiens, UniProt P05177); assay: Inhibition of CYP1A2; type: ADME
T4 sequence (P05177 whole entry): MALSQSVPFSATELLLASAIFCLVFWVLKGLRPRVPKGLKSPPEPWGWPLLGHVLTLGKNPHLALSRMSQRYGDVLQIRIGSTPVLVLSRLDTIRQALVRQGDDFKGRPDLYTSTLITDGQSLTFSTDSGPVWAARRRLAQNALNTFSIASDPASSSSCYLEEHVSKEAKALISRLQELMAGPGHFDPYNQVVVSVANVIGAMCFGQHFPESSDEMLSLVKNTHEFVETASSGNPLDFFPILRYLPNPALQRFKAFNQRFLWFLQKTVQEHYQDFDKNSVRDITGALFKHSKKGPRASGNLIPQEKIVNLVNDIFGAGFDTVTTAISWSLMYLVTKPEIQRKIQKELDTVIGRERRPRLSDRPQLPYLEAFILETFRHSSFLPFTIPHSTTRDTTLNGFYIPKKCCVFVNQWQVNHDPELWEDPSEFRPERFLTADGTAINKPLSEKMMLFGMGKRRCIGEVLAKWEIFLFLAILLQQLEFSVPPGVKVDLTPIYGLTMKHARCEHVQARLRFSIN

[20] = as §1; type: ADME, organism-based; details: in vivo
[21] = target: Cytochrome P450 3A4 (Homo sapiens, UniProt P08684); assay: Inhibition of CYP3A4; type: ADME; details: read-out: pIC50 (converted)
Cytochrome P450 3A4, sequence (P08684 whole entry): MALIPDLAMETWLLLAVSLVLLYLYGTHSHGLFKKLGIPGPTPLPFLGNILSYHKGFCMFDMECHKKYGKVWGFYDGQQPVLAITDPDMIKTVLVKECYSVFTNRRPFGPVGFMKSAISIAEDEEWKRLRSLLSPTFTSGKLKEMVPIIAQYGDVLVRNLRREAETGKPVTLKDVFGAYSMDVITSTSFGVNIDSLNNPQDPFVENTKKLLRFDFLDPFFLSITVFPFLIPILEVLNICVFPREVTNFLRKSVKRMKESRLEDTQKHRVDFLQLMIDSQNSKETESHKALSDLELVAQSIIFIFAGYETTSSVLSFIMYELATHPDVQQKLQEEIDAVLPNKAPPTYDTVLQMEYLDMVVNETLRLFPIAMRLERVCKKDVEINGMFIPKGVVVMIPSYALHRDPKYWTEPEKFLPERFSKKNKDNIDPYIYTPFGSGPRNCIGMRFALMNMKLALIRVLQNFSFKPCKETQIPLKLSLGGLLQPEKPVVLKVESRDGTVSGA

[22] = Half life in rat at 2 mg/kg, iv; type: ADME, organism-based; set-up: dose 2 mg/kg, route intravenous; details: in vivo
[23] = Fraction unbound in rat; type: ADME, organism-based; details: in vivo
[24] = target: Cytochrome P450 2C9 (Homo sapiens, UniProt P11712); assay: Inhibition of CYP2C9; type: ADME; details: read-out: pIC50 (converted)
Cytochrome P450 2C9, sequence (P11712 whole entry): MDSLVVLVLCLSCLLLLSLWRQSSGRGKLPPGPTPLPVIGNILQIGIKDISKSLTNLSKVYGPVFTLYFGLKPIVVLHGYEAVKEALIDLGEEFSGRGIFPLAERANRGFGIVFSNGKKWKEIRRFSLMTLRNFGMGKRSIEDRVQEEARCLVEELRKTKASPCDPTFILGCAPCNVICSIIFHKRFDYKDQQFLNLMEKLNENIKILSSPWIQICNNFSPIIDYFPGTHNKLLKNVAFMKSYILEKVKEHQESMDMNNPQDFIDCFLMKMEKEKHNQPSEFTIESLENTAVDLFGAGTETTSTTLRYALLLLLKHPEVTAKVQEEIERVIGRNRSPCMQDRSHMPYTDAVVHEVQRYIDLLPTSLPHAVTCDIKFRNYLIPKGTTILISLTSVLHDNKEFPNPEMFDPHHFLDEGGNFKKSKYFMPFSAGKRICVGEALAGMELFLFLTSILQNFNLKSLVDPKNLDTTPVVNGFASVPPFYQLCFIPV

[25] = Clearance in rat at 2 mg/kg, iv; type: ADME, organism-based; set-up: dose 2 mg/kg, route intravenous; details: in vivo
[26] = target: Cytochrome P450 2D6 (Homo sapiens, UniProt P10635); assay: Inhibition of CYP2D6; type: ADME; details: read-out: pIC50 (converted)
Cytochrome P450 2D6, sequence (P10635 whole entry): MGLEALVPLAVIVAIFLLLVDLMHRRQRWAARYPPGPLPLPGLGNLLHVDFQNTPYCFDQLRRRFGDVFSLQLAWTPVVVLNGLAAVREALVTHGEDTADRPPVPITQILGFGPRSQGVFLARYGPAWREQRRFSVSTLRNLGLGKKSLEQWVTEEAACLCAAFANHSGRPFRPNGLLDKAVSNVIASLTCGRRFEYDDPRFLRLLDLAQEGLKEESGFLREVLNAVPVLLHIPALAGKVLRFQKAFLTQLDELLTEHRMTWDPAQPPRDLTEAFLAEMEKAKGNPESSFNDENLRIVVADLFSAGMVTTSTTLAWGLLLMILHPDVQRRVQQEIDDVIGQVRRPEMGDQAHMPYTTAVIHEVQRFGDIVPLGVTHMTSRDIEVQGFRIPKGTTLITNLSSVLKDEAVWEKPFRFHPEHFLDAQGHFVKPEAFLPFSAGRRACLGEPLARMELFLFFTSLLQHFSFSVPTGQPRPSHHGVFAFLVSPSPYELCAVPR

[27] = target: Cytochrome P450 2C19 (Homo sapiens, UniProt P33261); assay: Inhibition of CYP2C19; type: ADME; details: read-out: pIC50 (converted)
Cytochrome P450 2C19, sequence (P33261 whole entry): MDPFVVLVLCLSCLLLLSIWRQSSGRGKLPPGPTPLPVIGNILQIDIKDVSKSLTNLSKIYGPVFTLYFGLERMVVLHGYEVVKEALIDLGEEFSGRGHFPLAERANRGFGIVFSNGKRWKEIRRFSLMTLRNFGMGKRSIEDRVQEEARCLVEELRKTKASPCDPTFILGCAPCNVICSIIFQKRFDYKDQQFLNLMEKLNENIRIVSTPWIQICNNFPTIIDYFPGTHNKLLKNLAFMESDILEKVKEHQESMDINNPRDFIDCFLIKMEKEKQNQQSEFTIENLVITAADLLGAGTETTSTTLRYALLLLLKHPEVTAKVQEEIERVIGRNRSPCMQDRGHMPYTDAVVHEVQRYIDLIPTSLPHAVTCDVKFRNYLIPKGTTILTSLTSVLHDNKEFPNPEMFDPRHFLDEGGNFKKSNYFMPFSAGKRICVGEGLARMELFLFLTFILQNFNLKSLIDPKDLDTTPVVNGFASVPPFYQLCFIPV

**Q.** Which logD [1] does the source give for O=C(NCc1ccncn1)c1ccc(Oc2ccc(C#C[C@]3(O)CN4CCC3CC4)cc2)cc1 here?
**A.** 1.8

**Q.** And the Papp B→A at 10 µM [2]?
**A.** 33 ×10⁻⁶ cm/s

**Q.** What about the bioavailability [3] of the same compound?
**A.** 2%

**Q.** And the Papp A→B at 10 µM [4]?
**A.** 6.7 ×10⁻⁶ cm/s

**Q.** And the hepatocyte CLint [5]?
**A.** 3.2 µL/min/1e6 cells

**Q.** With O=C(NC1CCCS(=O)(=O)C1)c1ccc(Oc2ccc(C#C[C@]3(O)CN4CCC3CC4)cc2)cc1 (single isomer, unassigned; diastereomer 2) as the compound, how does the IC50 [6] read?
**A.** 2.51 µM

**Q.** What about the F [7] of the same compound?
**A.** 0%

**Q.** What about the pIC50 [8] of the same compound?
**A.** < 5

**Q.** What about the microsomal CLint [9] of the same compound?
**A.** < 2 µL/min/mg

**Q.** And the IC50 [10]?
**A.** 0.01 µM

**Q.** What about the pIC50 [11] of the same compound?
**A.** < 5

**Q.** What about the pIC50 [12] of the same compound?
**A.** < 5

**Q.** And the solubility thermodynamic [13]?
**A.** 120 µM (≈ 59.4 µg/mL)

**Q.** And the hepatocyte CLint [5]?
**A.** 3.4 µL/min/1e6 cells

**Q.** With O=C(NC1CCCS(=O)(=O)C1)c1ccc(Oc2ccc(C#C[C@]3(O)CN4CCC3CC4)cc2)cc1 (single isomer, unassigned; diastereomer 1) as the compound, how does the INH [14] read?
**A.** > 10 µM

**Q.** And the INH [15]?
**A.** > 10 µM

**Q.** And the INH [16]?
**A.** > 100 µM

**Q.** Which results are given for CNC(=O)c1ccc(Oc2ccc(C#C[C@]3(O)CN4CCC3CC4)cc2)cc1?
**A.** fraction unbound [17]: 0.24; Vd [18]: 2.4 L/kg; logD [1]: 2; Papp B→A at 10 µM [2]: 34 ×10⁻⁶ cm/s; IC50 [6]: 20 µM; IC50 [19]: > 10 µM; bioavailability [20]: 54%; IC50 [21]: > 10 µM; half-life [22]: 1.9 h; fraction unbound [23]: 0.26; IC50 ([8]; read-out: pIC50 (converted)): > 100 µM; microsomal CLint [9]: 3.9 µL/min/mg; IC50 [24]: > 10 µM; IC50 [10]: 0.2 µM; clearance [25]: 16 mL/min/kg; Papp A→B at 10 µM [4]: 23 ×10⁻⁶ cm/s; IC50 [26]: > 10 µM; IC50 ([11]; read-out: pIC50 (converted)): > 100 µM; IC50 [27]: > 10 µM; IC50 ([12]; read-out: pIC50 (converted)): > 100 µM; solubility thermodynamic [13]: > 1600 µM; hepatocyte CLint [5]: 2.7 µL/min/1e6 cells
